Reference: patent publication US9393292B2, “Methods for inducing selective apoptosis” (priority 2010, dated 2016)
Residues, ends and D or L forms follow the SMILES beside them. *: point of attachment. Cbz = O=C(OCc1ccccc1)*; CH2F = FC*

Assays:
[1] = cited from earlier work
CD3+CD19+ T cells = assay: In vitro exposure to AP1903 of patient CD3+CD19+ T cells 5 months after treatment; format: cell-based, human; settings: patient 2, FACS and quantitative PCR
non-transduced cells = assay: Viability of non-transduced cells with AP20187; format: cell-based, human; settings: non-transduced cells (n=6)
Method: (§1) Suicide gene functionality was assessed by adding a small molecule synthetic homodimerizer, AP20187 (Ariad Pharmaceuticals; Cambridge, Mass.), at 10 nM final concentration the day following CD19 immunomagnetic selection. Cells were stained with annexin V and 7-amino-actinomycin (7-AAD)(BD Pharmingen) at 24 hours and analyzed by flow cytometry. Cells negative for both Annexin V and 7-AAD were considered viable, cells that were annexin V positive were apoptotic, and cells that were both annexin V and 7-AAD positive were necrotic. The percentage killing induced by dimerization was corrected for baseline viability as follows: Percentage killing=100%−(% Viability in AP20187-treated cells÷% Viability in nontreated cells).
The day following immunomagnetic selection, 10 nM of the chemical inducer of dimerization, AP20187, was added to induce apoptosis, which appeared within 24 hours. […] Killing efficiency after correction for baseline viability was about 92.9%±3.8%. Large-scale CD19 selection produced cells that were killed with similar efficiency as small-scale selection: mean viability with and without AP20187, and percentage killing, in large and small scale were about 3.9%, about 84.0%, about 95.4% (n=3) and about 6.6%, about 79.3%, about 91.4% (n=5) respectively. […]

[2] = system: iCasp9-ΔCD19-transduced MSCs; assay: In vivo killing of iCasp9-transduced MSCs in SCID mice (luminescence imaging, qPCR); set-up: species or system mouse
[3] = system: iCasp9M.IRES.IL-12-transduced cells; assay: IL-12 ELISA of culture supernatant of iCasp9M.IRES.IL-12-transduced EBV-CTLs after CID; format: cell-based, human; settings: after 10 nM CID; detection limit 7.8 pg/mL
[4] = system: gene-modified allodepleted cells; assay: Induction of apoptosis with AP20187 in gene-modified allodepleted cells (annexin V/7-AAD); format: cell-based, human
Method: as §1
Cells were maintained in T cell medium containing 50 U/ml IL-2 until 22 days after transduction. A portion of cells was reactivated on 24-well plates coated with […] OKT3 and 1 μg/ml anti-CD28 (Clone CD28.2, BD Pharmingen, San Jose, Calif.) for 48 to 72 hours. CD19 expression and suicide gene function in both reactivated and non-reactivated cells were measured on day 24 or 25 post transduction.

[5] = system: iCasp9M.IRES.GFPhigh-transduced CTLs; assay: SCID mouse-human xenograft model: human CD3+/GFP+ T cells in tumors after CID; format: in vivo; settings: single dose of CID (50 μg AP20187 intraperitoneally); tumors analyzed three days later; versus carrier; listed as dimerizer
[6] = system: EBV-specific and CMV-specific T cells; assay: Pentamer analysis of virus-specific T cells after AP20187 treatment of allostimulated cells; format: cell-based, human; settings: 3 weeks post transduction; 4 days allogeneic PBMC; 10 nM AP20187
Method: In some experiments, cells also were cultured for 3 weeks post transduction and stimulated with 30G-irradiated allogeneic PBMC at a responder:stimulator ratio of 1:1. After 4 days of co-culture, a portion of cells was treated with 10 nM AP20187. Killing was measured by annexin V/7-AAD staining at 24 hours, and the effect of dimerizer on bystander virus-specific T cells was assessed by pentamer analysis on AP20187-treated and untreated cells.
An observation of note was that many virus-specific T cells were spared when dimerizer was used to deplete gene-modified cells that have been re-activated with allogeneic PBMC, rather than by non-specific mitogenic stimuli. […] Gene-modified allodepleted cells were maintained in culture for 3 weeks post-transduction to allow transgene down-modulation. Cells were stimulated with allogeneic PBMC for 4 days, following which a portion was treated with 10 nM AP20187. The frequency of EBV-specific T cells (see FIG. 14A) and CMV-specific T cells (see FIG. 14B) were quantified by pentamer analysis before allostimulation, after allostimulation, and after treatment of allostimulated cells with dimerizer. The percentage of virus-specific T cells decreased after allostimulation. Following treatment with dimerizer, virus-specific T cells were partially and preferentially retained.

iCasp9-transduced MSCs = assay: Apoptosis of undifferentiated iCasp9-transduced MSCs after CID (annexin V-PE/7-AAD FACS); format: cell-based, human
Method: Undifferentiated MSCs. The chemical inducer of dimerization (CID) (AP20187; ARIAD Pharmaceuticals, Cambridge, Mass.) was added at 50 nM to iCasp9-transduced MSCs cultures in complete medium. Apoptosis was evaluated 24 hours later by FACS analysis, after cell harvest and staining with annexin V-PE and 7-AAD in annexin V binding buffer (BD Biosciences, San Diego, Calif.). Control iCasp9-transduced MSCs were maintained in culture without exposure to CID.

[7] = system: F-Casp9M.I.GFPhigh-transduced T cells; assay: Annexin-V/7-AAD staining and microscopy of F-Casp9M.I.GFPhigh-transduced T cells after CID; format: cell-based, human; settings: zVAD-fmk 100 μM for 1 hour prior to adding CID
[8] = two injections of 50 μg of CID 24 hours apart, seven days after implantation

## CC[C@H](C(=O)N1CCCC[C@H]1C(=O)O[C@H](CCc1ccc(OC)c(OC)c1)c1cccc(OCC(=O)NCCNC(=O)COc2cccc([C@@H](CCc3ccc(OC)c(OC)c3)OC(=O)[C@@H]3CCCCN3C(=O)[C@@H](CC)c3cc(OC)c(OC)c(OC)c3)c2)c1)c1cc(OC)c(OC)c(OC)c1 (relative stereo) [AP1903, 2-Piperidinecarboxylic acid, 1-[(2S)-1-oxo-2-(3,4,5-trimethoxyphenyl)butyl]-, 1,2-ethanediylbis[imino(2-oxo-2,1-ethanediyl)oxy-3,1-phenylene[(1R)-3-(3,4-dimethoxyphenyl)propylidene]]ester, [2S-[1(R*),2R[S[S*[1(R*),2R*]]]]]-(9Cl)]
[1]; 0.01-1.0 mg/kg dose range, IV infusion over 2 hours
  mean Cmax / maximal plasma level: 10 to 1275 ng/mL
[1]; 0.01-1.0 mg/kg
  plasma levels versus dose: directly proportional to dose
[1]; 1 volunteer at 1.0 mg/kg, 3 minutes after start of infusion, resolved after 32 minutes
  adverse event considered possibly related to AP1903: vasodilatation
[1]; Phase 1 study in volunteers
  serious adverse events: No serious adverse events
[1]; following each treatment, all mild in severity
  incidence of adverse events: very low
CD3+CD19+ T cells
  sensitivity of CD3+CD19+ cells to AP1903 in vitro: retain sensitivity

## CC[C@H](C(=O)N1CCCC[C@H]1C(=O)O[C@H](CCc1ccc(OC)c(OC)c1)c1cccc(OCC(=O)NCC(CNC(=O)COc2cccc([C@@H](CCc3ccc(OC)c(OC)c3)OC(=O)[C@@H]3CCCCN3C(=O)[C@@H](CC)c3cc(OC)c(OC)c(OC)c3)c2)CN(C)C)c1)c1cc(OC)c(OC)c(OC)c1 [AP20187]
non-transduced cells
  viability with AP20187: about 86%±9%
[2]; 1:1 mixture of doubly and singly transduced MSCs, two doses of CID
  killing / depletion of iCasp9-positive cells (qPCR): > 99%
[2]; mouse, in vivo
  proportion of surviving iCasp9-positive cells: 0.7 % of the original population
[2]; [8]
  luminescence signal of MSCs transduced with iCasp9: quickly killed
  luminescence signal of cells negative for iCasp9: not affected
[3]
  IL-12 in the supernatant: < 7.8 pg/mL
[4]; 10 nM AP20187, day after CD19 selection, 24 hours
  cells remaining viable: about 5.5%±2.5%
[4]; listed as small-molecule dimerizer
  apoptosis / elimination of iCasp9-modified T cells after dimerizer (summary statements): > 90%
[5]
  reduction in the number of human CD3+/GFP+ T cells: more than 99%
[6]
  viral reactive subpopulations (HLA pentamers, EBV and CMV): spares (and thereby enriches) viral reactive subpopulations
iCasp9-transduced MSCs; 50 nM CID, 24 hours, FACS example
  annexin positive, iCasp9-CD19-positive cells (iCasp pos/CID): Ninety-three
iCasp9-transduced MSCs; magnetic immunoselection of iCasp9-CD19-positive cells
  selected cells apoptotic after exposure to CID: More than 95%

## COC(=O)C[C@H](NC(=O)[C@H](C)NC(=O)[C@@H](NC(=O)OCc1ccccc1)C(C)C)C(=O)CF [zVAD-fmk] (Cbz-Val-Ala-Asp(OMe)-CH2F)
[7]
  CID-induced apoptosis: inhibited
